Results: patent US9988635B2, “Modulation of growth hormone receptor expression and insulin-like growth factor expression” (Antisense Therapeutics Limited, priority 2003, dated 2018)
In the oligonucleotide strings, read from the 5' end, every base follows the letter of its sugar. An asterisk marks phosphorothioate; unmarked linkages are phosphodiester. Other units and linkages are bracketed, terminal groups are in braces. A string of capitals states the bases alone. e = 2'-O-(2-methoxyethyl) (MOE); [5mC] = 5-methylcytosine; d = 2'-deoxy (DNA)

Each substance was assayed on mouse growth hormone receptor mRNA (assay: Inhibition of mouse growth hormone receptor mRNA levels in b.END cells, quantitative real-time PCR, incl. dose-response). Details: averages from three experiments.
Type: cell-based
Method: (§1) The mouse brain endothelial cell line b.END was obtained from Dr. Werner Risau at the Max Plank Instititute (Bad Nauheim, Germany). b.END cells were routinely cultured in DMEM, high glucose (Gibco/Life Technologies, Gaithersburg, Md.) supplemented with 10% fetal calf serum (Gibco/Life Technologies, Gaithersburg, Md.). Cells were routinely passaged by trypsinization and dilution when they reached 90% confluence. Cells were seeded into 96-well plates (Falcon-Primaria #3872) at a density of 3000 cells/well for use in RT-PCR analysis.
(§2) When cells reached 65-75% confluency, they were treated with oligonucleotide. For cells grown in 96-well plates, wells were washed once with 100 μL OPTI-MEM™-1 reduced-serum medium (Invitrogen Corporation, Carlsbad, Calif.) and then treated with 130 μL of OPTI-MEM™-1 containing 3.75 μg/mL LIPOFECTIN™ (Invitrogen Corporation, Carlsbad, Calif.) and the desired concentration of oligonucleotide. Cells are treated and data are obtained in triplicate. After 4-7 hours of treatment at 37° C., the medium was replaced with fresh medium. Cells were harvested 16-24 hours after oligonucleotide treatment.
(§3) Total RNA was isolated using an RNEASY 96™ kit and buffers purchased from Qiagen Inc. (Valencia, Calif.) following the manufacturer's recommended procedures. Briefly, for cells grown on 96-well plates, growth medium was removed from the cells and each well was washed with 200 μL cold PBS. 150 μL Buffer RLT was added to each well and the plate vigorously agitated for 20 seconds. 150 μL of 70% ethanol was then added to each well and the contents mixed by pipetting three times up and down. The samples were then transferred to the RNEASY 96™ well plate attached to a QIAVAC™ manifold fitted with a waste collection tray and attached to a vacuum source. Vacuum was applied for 1 minute. 500 μL of Buffer RW1 was added to each well of the RNEASY 96™ plate and incubated for 15 minutes and the vacuum was again applied for 1 minute. An additional 500 μL of Buffer RW1 was added to each well of the RNEASY 96™ plate and the vacuum was applied for 2 minutes. 1 mL of Buffer RPE was then added to each well of the RNEASY 96™ plate and the vacuum applied for a period of 90 seconds. The Buffer RPE wash was then repeated and the vacuum was applied for an additional 3 minutes. The plate was then removed from the QIAVAC™ manifold and blotted dry on paper towels. The plate was then re-attached to the QIAVAC™ manifold fitted with a collection tube rack containing 1.2 mL collection tubes. RNA was then eluted by pipetting 140 μL of RNAse free water into each well, incubating 1 minute, and then applying the vacuum for 3 minutes.
(§4) Quantitation of growth hormone receptor mRNA levels was accomplished by real-time quantitative PCR using the ABI PRISM™ 7600, 7700, or 7900 Sequence Detection System (PE-Applied Biosystems, Foster City, Calif.) according to manufacturer's instructions. This is a closed-tube, non-gel-based, fluorescence detection system which allows high-throughput quantitation of polymerase chain reaction (PCR) products in real-time. As opposed to standard PCR in which amplification products are quantitated after the PCR is completed, products in real-time quantitative PCR are quantitated as they accumulate. This is accomplished by including in the PCR reaction an oligonucleotide probe that anneals specifically between the forward and reverse PCR primers, and contains two fluorescent dyes. A reporter dye (e.g., FAM or JOE, obtained from either PE-Applied Biosystems, Foster City, Calif., Operon Technologies Inc., Alameda, Calif. or Integrated DNA Technologies Inc., Coralville, Iowa) is attached to the 5′ end of the probe and a quencher dye (e.g., TAMRA, obtained from either PE-Applied Biosystems, Foster City, Calif., Operon Technologies Inc., Alameda, Calif. or Integrated DNA Technologies Inc., Coralville, Iowa) is attached to the 3′ end of the probe. […]

Row | Substance | % INHIB of mouse growth hormone receptor mRNA levels
1 | 227443 (antisense eT*eG*e[5mC]*eT*eT*dG*dG*d[5mC]*dA*dG*d[5mC]*dT*d[5mC]*dG*dT*eG*eG*eG*eT*eT) [compound 227443] | 0%
2 | 227444 (antisense eA*eT*eG*eG*e[5mC]*dT*dG*d[5mC]*dG*d[5mC]*d[5mC]*dT*dG*d[5mC]*dT*eT*eG*eG*e[5mC]*eA) [compound 227444] | 53%
3 | 227445 (antisense eT*eA*e[5mC]*e[5mC]*eT*dG*dA*dG*dA*d[5mC]*d[5mC]*dT*d[5mC]*dG*dG*eA*eG*eT*eT*eT) [compound 227445] | 69%
4 | 227446 (antisense eA*e[5mC]*eA*eA*eA*dG*dA*dT*d[5mC]*d[5mC]*dA*dT*dA*d[5mC]*d[5mC]*eT*eG*eA*eG*eA) [compound 227446] | 87%
5 | 227447 (antisense eG*e[5mC]*eT*eG*eG*dT*dG*dT*dA*dG*d[5mC]*d[5mC]*dT*d[5mC]*dA*e[5mC]*eT*eT*e[5mC]*e[5mC]) [compound 227447] | 77%
6 | 227448 (antisense eT*eT*eT*eG*e[5mC]*d[5mC]*dA*dA*dG*dA*dG*dT*dA*dG*d[5mC]*eT*eG*eG*eT*eG) [compound 227448] | 60%
7 | 227449 (antisense eA*e[5mC]*eG*eA*e[5mC]*dA*d[5mC]*dT*dT*dG*dG*dT*dG*dA*dA*eT*e[5mC]*eG*eA*eG) [compound 227449] | 69%
8 | 227450 (antisense eT*eG*eG*e[5mC]*eT*dT*dT*d[5mC]*d[5mC]*d[5mC]*dT*dT*dT*dT*dA*eG*e[5mC]*eA*eT*eA) [compound 227450] | 71%
9 | 227451 (antisense eA*eT*eG*eA*eG*d[5mC]*dA*dA*dT*dT*d[5mC]*dT*dT*dG*d[5mC]*eA*eG*e[5mC]*eT*eT) [compound 227451] | 49%
10 | 227454 (antisense eA*eG*eT*eT*eG*dA*dA*dG*dT*dA*dA*d[5mC]*dA*dG*d[5mC]*eT*eG*eT*eT*eT) [compound 227454] | 69%
11 | 227455 (antisense eA*eG*eT*eA*eG*dG*dG*dT*dA*dT*d[5mC]*d[5mC]*dA*dA*dA*eT*eG*eG*eA*eG) [compound 227455] | 43%
12 | 227456 (antisense eG*eT*e[5mC]*e[5mC]*eA*dG*dT*dT*dG*dA*dG*dG*d[5mC]*d[5mC]*dA*eA*eT*eG*eG*eG) [compound 227456] | 97%
13 | 227457 (antisense eG*eA*eA*eT*eT*dA*dT*d[5mC]*d[5mC]*dA*dT*d[5mC]*d[5mC]*d[5mC]*dT*eT*e[5mC]*eA*eG*eA) [compound 227457] | 67%
14 | 227458 (antisense eG*eT*eA*e[5mC]*eT*dG*dA*dA*dT*dT*dT*d[5mC]*dA*dT*dA*e[5mC]*eT*e[5mC]*e[5mC]*eA) [compound 227458] | 75%
15 | 227459 (antisense e[5mC]*eT*eG*eA*eA*d[5mC]*dT*d[5mC]*dG*d[5mC]*dT*dG*dT*dA*d[5mC]*eT*eT*eT*eT*e[5mC]) [compound 227459] | 60%
16 | 227460 (antisense eA*eA*e[5mC]*eT*eG*dG*dA*dT*dA*dT*d[5mC]*dT*dT*d[5mC]*dT*eT*e[5mC]*eA*e[5mC]*eA) [compound 227460] | 43%
17 | 227461 (antisense eT*eG*e[5mC]*eT*eA*d[5mC]*dT*d[5mC]*d[5mC]*dA*dA*dA*dT*dA*dT*eT*e[5mC]*e[5mC]*eA*eA) [compound 227461] | 75%
18 | 227462 (antisense eG*e[5mC]*eT*eT*eT*dG*dA*dA*dA*dA*dT*dA*dT*dA*dA*e[5mC]*eT*eA*e[5mC]*eA) [compound 227462] | 31%
19 | 227463 (antisense eA*eT*e[5mC]*eA*eG*d[5mC]*dA*dT*d[5mC]*dT*dT*dA*dA*dT*d[5mC]*e[5mC]*eT*eT*eT*eG) [compound 227463] | 39%
20 | 227465 (antisense eT*eG*eA*eG*eA*dA*dG*dA*dT*d[5mC]*dT*dG*dG*dA*dT*e[5mC]*eA*eA*eT*e[5mC]) [compound 227465] | 51%
21 | 227466 (antisense eT*eT*eG*eT*eA*dG*dT*dT*dA*dT*d[5mC]*dA*dT*dG*dA*eA*eT*eG*e[5mC]*e[5mC]) [compound 227466] | 50%
22 | 227467 (antisense e[5mC]*eA*eT*e[5mC]*eA*dT*dT*dG*dT*dA*dG*dA*dA*dG*dT*e[5mC]*eG*eG*eG*eT) [compound 227467] | 33%
23 | 227470 (antisense e[5mC]*eT*e[5mC]*e[5mC]*eA*dA*dG*dG*dA*dT*dA*d[5mC]*d[5mC]*dA*dG*e[5mC]*eT*eG*eA*eT) [compound 227470] | 82%

What follows are substances tested on human growth hormone receptor mRNA (assay: Inhibition of human growth hormone receptor mRNA levels in MCF7 cells, quantitative real-time PCR). Details: averages from three experiments.
Type: cell-based
Parameters: concentration or dose not given beside the values
Method: as §1, with “human breast carcinoma” for “mouse brain endothelial”, “MCF-7” for “b.END”, “from” for “from Dr. Werner Risau at”, “American Type Culture Collection (Manassas, Va.). MCF-7” for “Max Plank Instititute (Bad Nauheim, Germany). b.END”, “DMEM low” for “DMEM, high”, “7000” for “3000”
as §2, §3
as §4, with “probe. When the probe and dyes are intact, reporter dye emission is quenched by the proximity of the 3′ quencher dye.” for “probe.”

Row | Substance | % INHIB of human growth hormone receptor mRNA levels
24 | 272355 (antisense eT*eT*eG*eA*eG*dT*dG*dT*dT*d[5mC]*d[5mC]*dT*dA*dA*dA*eA*eT*eG*eA*eA) [compound 272355] | 24%
25 | 272356 (antisense eA*eT*eG*eG*eA*dG*dG*d[5mC]*dT*dG*dG*dA*dG*dG*dT*eT*e[5mC]*eA*eA*eA) [compound 272356] | 63%
26 | 272357 (antisense eT*eA*eG*eG*eG*dT*d[5mC]*d[5mC]*dA*dT*d[5mC]*dT*dT*dT*d[5mC]*eA*eA*eG*eA*e[5mC]) [compound 272357] | 62%
27 | 272358 (antisense eT*e[5mC]*eT*e[5mC]*e[5mC]*dA*dG*dA*dT*dA*dG*dA*dA*dT*d[5mC]*eT*eA*eA*eA*e[5mC]) [compound 272358] | 53%
28 | 272359 (antisense eT*e[5mC]*e[5mC]*eA*eA*dA*dT*dA*dT*dT*d[5mC]*dT*dG*dG*dT*eA*e[5mC]*eT*eT*eT) [compound 272359] | 72%
29 | 272360 (antisense eT*eA*eT*eT*eA*dG*dT*dT*dA*d[5mC]*d[5mC]*dT*dT*dG*dA*eG*eG*eA*eG*eA) [compound 272360] | 0%
30 | 272361 (antisense eA*eT*eT*eT*eT*d[5mC]*d[5mC]*dT*dT*d[5mC]*d[5mC]*dT*dA*dG*dA*eA*eA*eA*eT*eA) [compound 272361] | 10%
